We go through 41 molecules from patent US10611777B2, “Imidazopyridazine compounds and their use” (HUTCHISON MEDIPHARMA LIMITED, priority 2014, dated 2020).

Holding throughout (type): biochemical
The target in test [1] is PI3K-β (p110β/p85α) (Homo sapiens (Human), UniProt P42338). The test is described as follows: Fluorescent determination of PI3K enzyme activity (Transcreener KINASE Assay), PI3K-β.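 As to all read-outs here: Far-red fluorescence polarization immunoassay detecting ADP produced by the kinase, 80 min enzyme reaction at room temperature, inhibition relative to ADP formed in 2% DMSO control wells.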 The settings on record: for PI3K-β IH%: inhibition rate at 1 μM.
Experimental: (§1) PI3K kinases including p110α/p85α and p110γ were purchased from Invitrogen, p110δ/p85α and p110β/p85α were from Millipore.
(§2) It is a universal, homogenous, high throughput screening (HTS) technology using a far-red, competitive fluorescence polarization immunoassay based on the defection of ADP to monitor the activity of enzymes that catalyze group transfer reactions. […] The reaction mixture was added into desired wells of a 96-well plate. The plate was sealed and incubated for 80 min at room temperature. • 2) Next, 25 uL ADP detection mix was added into each well. The plate was sealed again and incubated for 60 min at room temperature. Then fluorescence polarization was measured by Tecan Infinite F500 Reader.
(§3) Data was analyzed and IC50 values were generated using the add-in software for Microsoft Excel, Xlfit™ (version 5.3).
(§4) Inhibition rates were calculated as follow: IH %=(ADP amount under 2% DMSO well−ADP amount under test compound well)/ADP amount under 2% DMSO well×100%.
In test [2] the target is PI3K-γ (p110γ) (Homo sapiens (Human), UniProt P48736). The test is described as follows: Fluorescent determination of PI3K enzyme activity (Transcreener KINASE Assay), PI3K-γ.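 Also: p110γ enzyme reaction for 80 min at room temperature, ADP formed measured by far-red competitive fluorescence polarization immunoassay, inhibition relative to wells with 2% DMSO only.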 The settings on record: inhibition rate at 1 μM.
Experimental: as §1, §2, §3, §4
Test [3] concerns the target PI3K-δ (p110δ/p85α) (Homo sapiens (Human), UniProt O00329). The test is described as follows: Fluorescent determination of PI3K enzyme activity (Transcreener KINASE Assay), PI3K-δ.
Experimental: as §1, §2, §3, §4

For orientation: IC50 means the concentration at which inhibition is half-maximal.

Chain of PI3K-γ (p110γ) (P48736 whole entry, species assumed): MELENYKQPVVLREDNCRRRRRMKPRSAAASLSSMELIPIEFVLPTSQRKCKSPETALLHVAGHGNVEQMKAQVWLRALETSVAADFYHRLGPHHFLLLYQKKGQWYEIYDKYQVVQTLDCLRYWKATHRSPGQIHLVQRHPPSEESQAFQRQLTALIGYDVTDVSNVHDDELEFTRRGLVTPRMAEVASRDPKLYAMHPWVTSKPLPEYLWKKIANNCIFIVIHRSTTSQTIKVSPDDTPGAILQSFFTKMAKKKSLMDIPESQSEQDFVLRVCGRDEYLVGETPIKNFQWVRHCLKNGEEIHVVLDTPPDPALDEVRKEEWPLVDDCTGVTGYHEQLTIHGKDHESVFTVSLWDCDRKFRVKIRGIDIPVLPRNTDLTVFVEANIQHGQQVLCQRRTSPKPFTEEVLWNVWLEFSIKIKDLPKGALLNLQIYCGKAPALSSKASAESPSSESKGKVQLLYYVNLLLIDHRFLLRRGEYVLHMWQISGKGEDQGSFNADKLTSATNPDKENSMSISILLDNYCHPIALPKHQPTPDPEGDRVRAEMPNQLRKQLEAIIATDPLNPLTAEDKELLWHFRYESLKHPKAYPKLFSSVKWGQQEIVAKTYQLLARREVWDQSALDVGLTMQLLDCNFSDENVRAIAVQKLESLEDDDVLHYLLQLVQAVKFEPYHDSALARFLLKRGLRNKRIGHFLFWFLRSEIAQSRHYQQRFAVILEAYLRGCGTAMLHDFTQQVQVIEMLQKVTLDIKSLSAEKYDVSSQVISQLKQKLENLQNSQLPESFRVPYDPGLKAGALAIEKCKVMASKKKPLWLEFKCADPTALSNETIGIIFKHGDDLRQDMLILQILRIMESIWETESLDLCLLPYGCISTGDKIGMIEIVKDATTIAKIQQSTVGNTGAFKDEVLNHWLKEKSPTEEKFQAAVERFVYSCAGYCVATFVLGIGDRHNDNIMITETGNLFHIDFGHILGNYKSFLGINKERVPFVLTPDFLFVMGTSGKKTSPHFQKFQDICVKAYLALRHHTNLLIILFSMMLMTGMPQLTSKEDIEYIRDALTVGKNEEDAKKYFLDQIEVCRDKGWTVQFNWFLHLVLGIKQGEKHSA
Chain of PI3K-β (p110β/p85α) (P42338 whole entry, species assumed): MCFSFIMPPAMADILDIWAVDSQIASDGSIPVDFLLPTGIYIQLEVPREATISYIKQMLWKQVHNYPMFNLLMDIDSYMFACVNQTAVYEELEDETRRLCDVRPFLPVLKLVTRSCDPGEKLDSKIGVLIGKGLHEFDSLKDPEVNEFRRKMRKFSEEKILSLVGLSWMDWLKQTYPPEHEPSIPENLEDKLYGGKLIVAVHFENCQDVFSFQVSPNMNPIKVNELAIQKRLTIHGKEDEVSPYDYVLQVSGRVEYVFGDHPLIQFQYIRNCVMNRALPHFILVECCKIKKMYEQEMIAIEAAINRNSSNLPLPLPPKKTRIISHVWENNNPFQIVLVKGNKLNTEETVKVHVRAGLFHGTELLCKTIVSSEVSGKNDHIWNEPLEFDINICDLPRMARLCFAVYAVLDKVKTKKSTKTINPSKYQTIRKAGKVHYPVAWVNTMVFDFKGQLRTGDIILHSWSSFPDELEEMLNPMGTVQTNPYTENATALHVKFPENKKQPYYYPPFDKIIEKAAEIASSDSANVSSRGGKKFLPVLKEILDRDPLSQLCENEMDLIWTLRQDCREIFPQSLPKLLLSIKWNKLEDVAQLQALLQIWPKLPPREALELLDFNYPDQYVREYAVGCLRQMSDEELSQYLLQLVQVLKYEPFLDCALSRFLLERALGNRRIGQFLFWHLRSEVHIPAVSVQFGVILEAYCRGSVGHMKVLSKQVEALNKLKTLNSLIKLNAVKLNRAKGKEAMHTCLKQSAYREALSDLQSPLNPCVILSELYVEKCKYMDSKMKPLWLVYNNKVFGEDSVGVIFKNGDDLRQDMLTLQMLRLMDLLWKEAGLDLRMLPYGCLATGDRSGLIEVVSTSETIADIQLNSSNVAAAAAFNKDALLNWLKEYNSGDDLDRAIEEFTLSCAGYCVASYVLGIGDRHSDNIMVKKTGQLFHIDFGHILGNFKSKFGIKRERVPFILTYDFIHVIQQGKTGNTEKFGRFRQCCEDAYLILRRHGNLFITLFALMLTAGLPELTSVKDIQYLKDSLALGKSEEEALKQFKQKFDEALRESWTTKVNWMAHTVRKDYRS
Chain of PI3K-β (p110β/p85α) (P27986 whole entry partner, species assumed): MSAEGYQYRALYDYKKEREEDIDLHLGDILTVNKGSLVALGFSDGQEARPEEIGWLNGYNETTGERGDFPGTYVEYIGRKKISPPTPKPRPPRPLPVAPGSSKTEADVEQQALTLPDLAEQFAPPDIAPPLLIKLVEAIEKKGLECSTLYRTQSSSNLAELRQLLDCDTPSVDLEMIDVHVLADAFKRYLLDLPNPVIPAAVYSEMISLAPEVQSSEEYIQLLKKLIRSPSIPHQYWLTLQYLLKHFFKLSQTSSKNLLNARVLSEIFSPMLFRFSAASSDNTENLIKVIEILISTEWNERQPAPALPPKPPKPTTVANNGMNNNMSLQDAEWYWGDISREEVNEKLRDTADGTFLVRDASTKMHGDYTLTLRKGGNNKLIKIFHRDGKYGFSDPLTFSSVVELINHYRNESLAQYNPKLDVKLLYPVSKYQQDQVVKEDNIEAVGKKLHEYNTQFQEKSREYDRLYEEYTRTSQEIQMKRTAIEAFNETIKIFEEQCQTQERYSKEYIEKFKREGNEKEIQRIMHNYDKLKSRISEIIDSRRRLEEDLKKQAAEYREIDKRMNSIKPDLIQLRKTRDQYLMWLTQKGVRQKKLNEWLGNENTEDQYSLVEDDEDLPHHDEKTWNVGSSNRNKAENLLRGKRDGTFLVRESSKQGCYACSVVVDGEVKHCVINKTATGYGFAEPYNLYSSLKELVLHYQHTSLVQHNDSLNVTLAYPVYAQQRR
Chain of PI3K-δ (p110δ/p85α) (O00329 whole entry, species assumed): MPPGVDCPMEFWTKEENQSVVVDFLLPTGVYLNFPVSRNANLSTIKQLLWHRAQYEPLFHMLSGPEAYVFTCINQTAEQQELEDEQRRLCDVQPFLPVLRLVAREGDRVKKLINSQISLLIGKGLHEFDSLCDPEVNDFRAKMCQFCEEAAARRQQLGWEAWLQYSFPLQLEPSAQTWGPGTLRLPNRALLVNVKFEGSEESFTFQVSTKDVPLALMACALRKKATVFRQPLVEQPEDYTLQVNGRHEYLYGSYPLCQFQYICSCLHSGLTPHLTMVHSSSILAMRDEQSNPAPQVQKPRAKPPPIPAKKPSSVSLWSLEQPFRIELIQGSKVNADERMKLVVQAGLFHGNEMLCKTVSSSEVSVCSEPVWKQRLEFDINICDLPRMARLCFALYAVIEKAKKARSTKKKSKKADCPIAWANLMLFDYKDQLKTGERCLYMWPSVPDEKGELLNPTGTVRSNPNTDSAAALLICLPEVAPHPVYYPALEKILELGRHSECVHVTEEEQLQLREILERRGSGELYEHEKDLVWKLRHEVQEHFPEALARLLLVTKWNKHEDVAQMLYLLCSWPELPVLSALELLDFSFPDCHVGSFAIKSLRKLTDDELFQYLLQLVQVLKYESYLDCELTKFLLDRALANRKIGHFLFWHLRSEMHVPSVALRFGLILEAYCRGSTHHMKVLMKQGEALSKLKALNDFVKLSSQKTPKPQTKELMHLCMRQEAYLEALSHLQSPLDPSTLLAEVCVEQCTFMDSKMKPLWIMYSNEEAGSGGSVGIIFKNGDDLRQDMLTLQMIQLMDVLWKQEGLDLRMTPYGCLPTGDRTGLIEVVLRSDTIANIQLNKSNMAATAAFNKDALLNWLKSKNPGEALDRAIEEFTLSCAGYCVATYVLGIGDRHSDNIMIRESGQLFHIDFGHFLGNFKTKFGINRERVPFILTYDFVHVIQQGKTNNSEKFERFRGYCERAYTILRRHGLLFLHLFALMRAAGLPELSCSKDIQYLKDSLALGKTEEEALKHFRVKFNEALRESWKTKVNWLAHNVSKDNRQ
Chain of PI3K-δ (p110δ/p85α) (P27986 whole entry partner, species assumed): as the sequence (P27986 whole entry partner, species assumed) above

`C[C@H](Nc1ncnc(N)c1C#N)c1cc2ncc(Cl)n2nc1-c1ccc2scnc2c1` [Compound 74]: in test [1], the “PI3K-β IH%” value is 49.4%. In test [2], the “PI3K-γ IH%” value came out at 40.8%. Taken in the same sequence, the figures for `Cc1cn2nc(-c3ccccc3)c([C@H](C)Nc3ncnc(N)c3C#N)cc2n1` [Compound 58] were 20.5% and 20.2%. `CCC(Nc1ncnc(N)c1C#N)c1cc2ncc(Cl)n2nc1-c1cccc(F)c1` (stereo not shown) [Compound 24]: the “PI3K-β IH%” value in test [1] worked out at 46.6%. For the same molecule, the “PI3K-γ IH%” value in test [2] was found to be 44.5%. As to `C[C@@H](c1cc2ncc(Cl)n2nc1-c1ccccc1)n1cnc2c(N)ncnc21` [Compound 20, (S)-9-(1-(3-chloro-6-phenylimidazo[1,2-b]pyridazin-7-yl)ethyl)-9H-purin-6-amine], the “PI3K-β IH%” value in test [1] was 17.4%. The “PI3K-γ IH%” value in test [2] stood at 43.1%. `C[C@H](Nc1ncnc(N)c1-c1cnn(C)c1)c1cc2ncc(Cl)n2nc1-c1ccccc1` [Compound 57]: the “PI3K-β IH%” value in test [1] is recorded as 6.3%. The “PI3K-γ IH%” value in test [2] stood at 30.3%. In the case of `C[C@H](Nc1ncnc(N)c1C#N)c1cc2ncc(Cl)n2nc1-c1ccc(F)c(F)c1` [Compound 63], the “PI3K-β IH%” value in test [1] stood at 48.1%. With `CC(Nc1ncnc2[nH]cnc12)c1cc2ncc(Cl)n2nc1-c1ccccc1` (single isomer, unassigned) [Compound 11], in test [1], the “PI3K-β IH%” value is 55.7%. In the case of `C[C@H](Nc1ncnc(N)c1C#N)c1cc2ncc(Cl)n2nc1-c1ccncc1` [Compound 73], the “PI3K-β IH%” value in test [1] was 60.8%. The “PI3K-γ IH%” value in test [2] was 62.8%. For `C[C@H](Nc1ncnc(N)c1-c1cccc(F)c1)c1cc2ncc(Cl)n2nc1-c1ccccc1` [Compound 37, (S)-N^4-(1-(3-chloro-6-phenylimidazo[1,2-b]pyridazin-7-yl)ethyl)-5-(3-fluorophenyl)pyrimidine-4,6-diamine] the same measures were −0.4% and 27.5%. For `CC(Nc1ncnc(N)c1C#N)c1cc2nccn2nc1-c1ccccc1` (stereo not shown) [Compound 1, 4-amino-6-((1-(6-phenylimidazo[1,2-b]pyridazin-7-yl)ethyl)amino)pyrimidine-5-carbonitrile] the same measures were 28.1% and 16.1%. Take `CCC(Nc1ncnc2[nH]cnc12)c1cc2ncc(Cl)n2nc1-c1ccccc1` (stereo not shown) [Compound 18]: the “PI3K-β IH%” value in test [1] is given as 42%. As to `CC[C@H](Nc1ncnc(N)c1C#N)c1cc2ncc(Cl)n2nc1-c1ccccc1` [Compound 6, (S)-4-amino-6-((1-(3-chloro-6-phenylimidazo[1,2-b]pyridazin-7-yl)propyl)amino)pyrimidine-5-carbonitrile], the “PI3K-γ IH%” value in test [2] was determined as 4.1%. On to `Cc1nc(N)c(C#N)c(N[C@@H](C)c2cc3ncc(Cl)n3nc2-c2ccccc2)n1` [Compound 32], for which the “PI3K-β IH%” value in test [1] was 23.8%.

As to `CC[C@@H](Nc1ncnc(N)c1C#N)c1cc2ncc(Cl)n2nc1-c1cccc(F)c1` [Compound 43, (R)-4-amino-6-((1-(3-chloro-6-(3-fluorophenyl)imidazo[1,2-b]pyridazin-7-yl)propyl)amino)pyrimidine-5-carbonitrile], the “PI3K-β IH%” value in test [1] is 23.6%. Also, the “PI3K-γ IH%” value in test [2] turned out to be 27.2%. For `C[C@H](Nc1ncnc(N)c1C#N)c1cc2ncc(Cl)n2nc1-c1ccc2ccccc2c1` [Compound 71] the same measures were 35.2% and 32.6%.

With `C[C@@H](Nc1ncnc(N)c1C#N)c1cc2ncc(Cl)n2nc1-c1ccccc1` [Compound 3, (R)-4-amino-6-((1-(3-chloro-6-phenylimidazo[1,2-b]pyridazin-7-yl)ethyl)amino)pyrimidine-5-carbonitrile], the “PI3K-γ IH%” value in test [2] is 6.9%.

Consider `CCC(Nc1ncnc2[nH]cnc12)c1cc2ncc(Cl)n2nc1-c1ccccc1F` (single isomer, unassigned) [Compound 26], for which the IC50 in test [3] was 839 nM. This lies in the sub-micromolar range. Turning to `CC(Nc1ncnc2[nH]cc(C#N)c12)c1cc2ncc(Cl)n2nc1-c1ccccc1` (single isomer, unassigned) [Compound 9], in test [2], the “PI3K-γ IH%” value was −1.4%.

On to `CC[C@H](Nc1ncnc2[nH]cnc12)c1cc2ncc(Cl)n2nc1-c1cccc(F)c1` [Compound 47], for which the “PI3K-β IH%” value in test [1] came to 32.2%. Also, the “PI3K-γ IH%” value in test [2] came to 55.2%. The molecule `C[C@H](Nc1ncnc(N)c1C#N)c1cc2ncc(Cl)n2nc1-c1ccccc1O` [Compound 69, (S)-4-amino-6-((1-(3-chloro-6-(2-hydroxyphenyl)imidazo[1,2-b]pyridazin-7-yl)ethyl)amino)pyrimidine-5-carbonitrile] returned a half-maximal inhibitory concentration (IC50) in test [1] of 133 nM. Take `C[C@@H](c1cc2ncc(Cl)n2nc1-c1ccccc1)n1ccc2c(N)ncnc21` [Compound 27, (S)-7-(1-(3-chloro-6-phenylimidazo[1,2-b]pyridazin-7-yl)ethyl)-7H-pyrrolo[2,3-d]pyrimidin-4-amine]: in test [1], the “PI3K-β IH%” value is 9.5%. Also, in test [2], the “PI3K-γ IH%” value is recorded as 24.9%. Taken in the same sequence, the figures for `CC[C@@H](Nc1ncnc2[nH]cnc12)c1cc2ncc(Cl)n2nc1-c1cccc(F)c1` [Compound 44] were 18.8% and 36.0%. Taken in the same sequence, the figures for `C[C@H](Nc1nc[n+]([O-])c(N)c1C#N)c1cc2ncc(Cl)n2nc1-c1ccccc1` [Compound 51, (S)-6-amino-4-((1-(3-chloro-6-phenylimidazo[1,2-b]pyridazin-7-yl)ethyl)amino)-5-cyanopyrimidine 1-oxide] were −15.5% and 36.7%. For `CNc1ncnc(N[C@@H](C)c2cc3ncc(Cl)n3nc2-c2ccccc2)c1C#N` [Compound 33, (S)-4-((1-(3-chloro-6-phenylimidazo[1,2-b]pyridazin-7-yl)ethyl)amino)-6-(methylamino)pyrimidine-5-carbonitrile] the same measures were 2.2% and −6.9%. As to `C[C@H](Nc1ncnc(N)c1-c1ccc(O)c(F)c1)c1cc2ncc(Cl)n2nc1-c1ccccc1` [Compound 38], the “PI3K-β IH%” value in test [1] is −2.2%. Moreover, the “PI3K-γ IH%” value in test [2] stood at 54.3%. For `C[C@H](Nc1ncnc(N)c1C(=O)O)c1cc2ncc(Cl)n2nc1-c1ccccc1` [Compound 52, (S)-4-amino-6-((1-(3-chloro-6-phenylimidazo[1,2-b]pyridazin-7-yl)ethyl)amino)pyrimidine-5-carboxylic acid] the same measures were −6.3% and −26.1%. Regarding `C[C@H](Nc1ncnc(N)c1C#N)c1cc2ncc(Cl)n2nc1-c1ccccn1` [Compound 8, (S)-4-amino-6-((1-(3-chloro-6-(pyridin-2-yl)imidazo[1,2-b]pyridazin-7-yl)ethyl)amino)pyrimidine-5-carbonitrile], the “PI3K-β IH%” value in test [1] is reported as 37.7%. The “PI3K-γ IH%” value in test [2] was −2.3%. As to `C[C@H](Nc1ncnc2[nH]ccc12)c1cc2ncc(Cl)n2nc1-c1ccccc1` [Compound 17], in test [1], the “PI3K-β IH%” value was 15.8%. The “PI3K-γ IH%” value in test [2] is 61.2%.

As for `C[C@H](Nc1ncnc(N)c1C#N)c1cc2ncc(Cl)n2nc1-c1cc(F)ccc1F` [Compound 35], the “PI3K-β IH%” value in test [1] is given as 67.6%. In test [2], the “PI3K-γ IH%” value is on record as 64.6%. For `C[C@@H](c1cc2ncc(Cl)n2nc1-c1ccccc1)N(C)c1ncnc(N)c1C#N` [Compound 42, (S)-4-amino-6-((1-(3-chloro-6-phenylimidazo[1,2-b]pyridazin-7-yl)ethyl)(methyl)amino)pyrimidine-5-carbonitrile] the same measures were 7.4% and 18.2%. `C[C@H](Nc1ncnc(N)c1C#N)c1cc2ncc(Cl)n2nc1-c1cccc(F)c1` [Compound 15]: the “PI3K-β IH%” value in test [1] is listed as 59%. Regarding `CCC(Nc1ncnc2[nH]cnc12)c1cc2ncc(Cl)n2nc1-c1ccccc1F` (stereo not shown) [Compound 26], the “PI3K-β IH%” value in test [1] is −7.5%. Moreover, the “PI3K-γ IH%” value in test [2] was found to be 8%. As for `C[C@H](Nc1ncnc2[nH]cnc12)c1cc2ncc(Cl)n2nc1-c1cccc(F)c1` [Compound 16], in test [1], the “PI3K-β IH%” value came out at 27.5%. For `C[C@H](Nc1ncnc(N)c1C#N)c1cc2ncc(Cl)n2nc1-c1ccc2cccnc2c1` [Compound 61], the “PI3K-β IH%” value in test [1] was found to be 24.4%. In test [2], the “PI3K-γ IH%” value is given as 26.5%. For `COc1ccc(-c2c(N)ncnc2N[C@@H](C)c2cc3ncc(Cl)n3nc2-c2ccccc2)cn1` [Compound 39] the same measures were −4.4% and 28.1%.

`C[C@H](Nc1ncnc(N)c1C(N)=O)c1cc2ncc(Cl)n2nc1-c1ccccc1` [Compound 53, (S)-4-amino-6-((1-(3-chloro-6-phenylimidazo[1,2-b]pyridazin-7-yl)ethyl)amino)pyrimidine-5-carboxamide]: in test [1], the “PI3K-β IH%” value is 30.5%. The “PI3K-γ IH%” value in test [2] is 34.3%. In the case of `C[C@H](Nc1ncnc(N)c1C#N)c1cc2ncc(Cl)n2nc1-c1ccc(Cl)c(F)c1` [Compound 64], in test [1], the “PI3K-β IH%” value is 44.1%. On to `C[C@H](Nc1ncnc(N)c1C#N)c1cc2ncc(Cl)n2nc1-c1cccc(C(C)(C)O)c1` (single isomer, unassigned) [Compound 79, (chiral)-4-amino-6-((1-(3-chloro-6-(3-(2-hydroxypropan-2-yl)phenyl)imidazo[1,2-b]pyridazin-7-yl)ethyl)amino)pyrimidine-5-carbonitrile], for which the “PI3K-β IH%” value in test [1] worked out at 43.8%. For the same molecule, the “PI3K-γ IH%” value in test [2] was found to be 56.2%.

`CCC(Nc1ncnc(N)c1C#N)c1cc2ncc(Cl)n2nc1-c1ccccn1` (stereo not shown) [Compound 29]: in test [2], the “PI3K-γ IH%” value stood at 35%. Turning to `Cc1noc(-c2c(N)ncnc2N[C@@H](C)c2cc3ncc(Cl)n3nc2-c2ccccc2)n1` [Compound 82, (S)-N^4-(1-(3-chloro-6-phenylimidazo[1,2-b]pyridazin-7-yl)ethyl)-5-(3-methyl-1,2,4-oxadiazol-5-yl)pyrimidine-4,6-diamine], the “PI3K-β IH%” value in test [1] is reported as 55.2%. On to `CCC(Nc1ncnc2[nH]cnc12)c1cc2ncc(Cl)n2nc1-c1ccccc1F` (stereo not shown) [Compound 25], for which, in test [1], the “PI3K-β IH%” value is 22.8%.
